The text below walks through data of patent US20090253634A1, “Methods and Compositions for the Treatment of Gastrointestinal Disorders” (MICROBIA, INC., priority 2005, published 2009).

For orientation: Kd means the constant that tells how readily two partners part at equilibrium.

Ends that are not written are not given here.

In one test the test system is intestinal secretion. The test is described as follows: suckling mouse model of intestinal secretion (SuMi assay). Format: in vivo, suckling mice. On the procedure:
In this model a test compound is administered to suckling mice that are between 7 and 9 days old. After the mice are sacrificed, the gastrointestinal tract from the stomach to the cecum is dissected (“guts”). The remains (“carcass”) as well as the guts are weighed and the ratio of guts to carcass weight is calculated. If the ratio is above 0.09, one can conclude that the test compound increases intestinal secretion. […] The effect of Zelnorm® was also studied.

The next test deals with gastrointestinal transit. Kind of test: murine gastrointestinal transit (GIT) assay, acute and chronic dosing. Format: in vivo, mice. The settings on record: for gastrointestinal transit rate: oral, SEQ ID NO:4 and Zelnorm 0.1 mg/kg, FIG. 3a, 3b; for intestinal transit rate, dose dependence: recombinantly synthesized peptides, FIG. 4a. On the procedure: In order to determine whether the peptides increase the rate of gastrointestinal transit, the peptides and controls were tested using a murine gastrointestinal transit (GIT) assay (Moon et al. Infection and Immunity 25:127, 1979). In this assay, charcoal, which can be readily visualized in the gastrointestinal tract is administered to mice after the administration of a test compound. The distance traveled by the charcoal is measured and expressed as a percentage of the total length of the […].
Mice were fasted with free access to water for 12 to 16 hours before the treatment with peptide or control buffer. The peptides were orally administered at 1 μg/kg-1 mg/kg of peptide in buffer ([…] pH 7.5) 7 minutes before being given an oral dose of 5% Activated Carbon (Aldrich 242276-250G). Control mice were administered buffer only before being given a dose of Activated Carbon. After 15 minutes, the mice were sacrificed and their intestines from the stomach to the cecum were dissected. The total length of the intestine as well as the distance traveled from the stomach to the charcoal front was measured for each animal and the results are expressed as the percent of the total length of the intestine traveled by the charcoal front. All results are reported as the average of 10 mice±standard deviation. A comparison of the distance traveled by the charcoal between the mice treated with peptide versus the mice treated with vehicle alone was performed using a Student's t test and a statistically significant difference was considered for P<0.05. P-values are calculated using a two-sided T-Test assuming unequal variances.
The identical experiment was performed to determine if SEQ ID NO:3 is effective in a chronic dosing treatment regimen. Briefly, 8 week old CD1 female mice are dosed orally once a day for 5 days with either SEQ ID NO:3 (0.06 mg/kg or 0.25 mg/kg in 20 mM Tris pH 7.5) or vehicle alone (20 mM Tris pH 7.5). On the 5th day, a GIT assay is performed identical to that above except 200 μl of a 10% charcoal solution is administered. […] The results are shown side by side with acute dosing (1 day).

In a further test the target is T1, intestinal GC-C receptor (Homo sapiens, UniProt P25092).
T1 construct: monolayers of T84 cells in 24-well plates; host or cells: T84 human colon carcinoma cells
T1 sequence (P25092 24-1073): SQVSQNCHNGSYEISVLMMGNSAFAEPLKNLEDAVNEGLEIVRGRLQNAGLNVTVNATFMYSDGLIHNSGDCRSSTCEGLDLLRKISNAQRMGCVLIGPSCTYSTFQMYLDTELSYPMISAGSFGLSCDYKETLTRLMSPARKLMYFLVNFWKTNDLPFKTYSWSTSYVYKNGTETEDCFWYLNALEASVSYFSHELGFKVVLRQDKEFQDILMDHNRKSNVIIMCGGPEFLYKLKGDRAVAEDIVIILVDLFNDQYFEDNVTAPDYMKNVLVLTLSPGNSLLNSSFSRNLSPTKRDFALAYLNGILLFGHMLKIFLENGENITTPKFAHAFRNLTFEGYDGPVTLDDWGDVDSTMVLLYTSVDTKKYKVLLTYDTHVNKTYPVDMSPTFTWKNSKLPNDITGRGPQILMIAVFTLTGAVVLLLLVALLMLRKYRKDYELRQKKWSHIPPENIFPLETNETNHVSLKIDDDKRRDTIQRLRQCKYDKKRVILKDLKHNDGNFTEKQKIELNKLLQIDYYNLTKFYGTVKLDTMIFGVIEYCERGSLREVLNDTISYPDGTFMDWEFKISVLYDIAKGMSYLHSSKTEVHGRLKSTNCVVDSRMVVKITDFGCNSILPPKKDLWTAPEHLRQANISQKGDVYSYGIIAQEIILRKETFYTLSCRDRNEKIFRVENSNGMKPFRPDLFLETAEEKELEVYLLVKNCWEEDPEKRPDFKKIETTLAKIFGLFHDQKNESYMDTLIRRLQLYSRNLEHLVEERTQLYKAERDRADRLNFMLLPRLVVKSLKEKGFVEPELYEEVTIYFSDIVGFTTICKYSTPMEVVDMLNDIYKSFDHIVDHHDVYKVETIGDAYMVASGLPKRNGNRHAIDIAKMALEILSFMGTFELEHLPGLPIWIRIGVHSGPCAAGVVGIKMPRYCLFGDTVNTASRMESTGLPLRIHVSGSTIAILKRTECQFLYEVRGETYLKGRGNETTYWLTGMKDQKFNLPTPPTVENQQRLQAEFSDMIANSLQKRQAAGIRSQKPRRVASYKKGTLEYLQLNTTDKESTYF
Kind of test: GC-C receptor activity assay (cyclic GMP) in T84 cells. Conditions: chemically synthesized peptides, cyclic GMP by EIA. The format is cell-based. On the procedure:
The ability of SEQ ID NO:5, SEQ ID NO:4, SEQ ID NO:3, and SEQ ID NO:6 to activate the intestinal GC-C receptor was assessed in an assay employing the T84 human colon carcinoma cell line (American Type Culture Collection (Bethesda, Md.)). For the assays cells were grown to confluency in 24-well culture plates with a 1:1 mixture of Ham's F12 medium and Dulbecco's modified Eagle's medium (DMEM), supplemented with 5% fetal calf serum and were used at between passages 54 and 60.
Briefly, monolayers of T84 cells in 24-well plates were washed twice with 1 ml/well DMEM, then incubated at 37° C. for 10 min with 0.45 ml DMEM containing 1 mM isobutylmethylxanthine (IBMX), a cyclic nucleotide phosphodiesterase inhibitor, Test peptides (50 μl) were then added and incubated for 30 minutes at 37° C. The media was aspirated and the reaction was then terminated by the addition of ice cold 0.5 ml of 0.1N HCl. The samples were held on ice for 20 minutes and then evaporated to dryness using a heat gun or vacuum centrifugation.

The target of test [1] is T2, GC-C receptors found in rat intestinal mucosa (Rattus norvegicus, UniProt P23897).
T2 construct: Epithelial cells from the small intestine of rats were obtained; from tissue; host or cells: rat small-intestinal mucosa / epithelial cell suspension
T2 sequence (P23897 23-1072): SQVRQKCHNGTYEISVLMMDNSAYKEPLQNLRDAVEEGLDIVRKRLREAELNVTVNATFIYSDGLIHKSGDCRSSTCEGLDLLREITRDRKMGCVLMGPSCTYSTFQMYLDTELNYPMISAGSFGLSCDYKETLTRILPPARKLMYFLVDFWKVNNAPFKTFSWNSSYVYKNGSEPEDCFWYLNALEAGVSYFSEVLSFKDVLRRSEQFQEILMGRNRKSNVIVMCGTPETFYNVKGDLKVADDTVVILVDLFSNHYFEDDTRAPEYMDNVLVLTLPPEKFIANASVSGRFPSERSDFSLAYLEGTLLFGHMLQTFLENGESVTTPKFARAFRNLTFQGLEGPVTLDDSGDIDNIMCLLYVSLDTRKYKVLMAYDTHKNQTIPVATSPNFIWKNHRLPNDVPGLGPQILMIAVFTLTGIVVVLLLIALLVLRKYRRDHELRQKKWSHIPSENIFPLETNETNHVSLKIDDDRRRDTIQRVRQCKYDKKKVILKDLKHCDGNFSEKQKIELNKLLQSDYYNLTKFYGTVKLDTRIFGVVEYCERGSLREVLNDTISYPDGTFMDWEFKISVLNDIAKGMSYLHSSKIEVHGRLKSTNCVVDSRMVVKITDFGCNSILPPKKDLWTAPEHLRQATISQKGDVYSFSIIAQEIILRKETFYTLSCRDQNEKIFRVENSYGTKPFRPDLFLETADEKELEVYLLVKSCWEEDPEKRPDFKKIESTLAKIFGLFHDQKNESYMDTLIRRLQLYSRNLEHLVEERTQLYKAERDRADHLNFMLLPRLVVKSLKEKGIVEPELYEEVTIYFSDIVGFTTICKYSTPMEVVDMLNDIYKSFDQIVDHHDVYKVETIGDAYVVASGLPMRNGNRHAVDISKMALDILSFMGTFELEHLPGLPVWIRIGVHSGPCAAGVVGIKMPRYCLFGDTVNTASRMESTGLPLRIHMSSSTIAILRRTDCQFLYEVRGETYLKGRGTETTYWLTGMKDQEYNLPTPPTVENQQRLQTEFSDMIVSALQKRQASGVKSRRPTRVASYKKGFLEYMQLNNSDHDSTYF
Conditions: same assay, observed by Giannella et al.; cited from earlier work.

The subject of a further test is PBQ-induced writhing. Kind of test: phenylbenzoquinone (PBQ)-induced writhing model. (In general: An intraperitoneal irritant provokes the stretching counted in writhing tests.)
Setting [2] is: recombinant peptides, dose response, FIG. 6a.

For `[H]/N=C(/NCCCCC)N/N=C/c1c[nH]c2ccc(OC)cc12` [Zelnorm®, tegaserod], in the test with intestinal secretion (0.2 mg/kg), the “intestinal secretion (guts to carcass weight ratio)” value is reported as “does not increase intestinal secretion”. Besides, the gastrointestinal transit rate entry in the test with gastrointestinal transit (acute) is on record as “increase gastrointestinal transit rate”. Besides, in the test with gastrointestinal transit (oral once a day for 5 days, SEQ ID NO:3 0.06 or 0.25 mg/kg, FIG. 4c), the “effect in mouse gastrointestinal motility assay upon chronic dosing” value is “effective”.

As for NSSNYCCELCCNPACTGCY [SEQ ID NO:4], the “intestinal secretion (guts to carcass weight ratio)” value in the test with intestinal secretion (dose response, wild-type ST purchased from TDT, FIG. 5a, 5b) is “increase intestinal secretion”. Besides, the “intestinal secretion (guts to carcass weight ratio)” value in the test with intestinal secretion (setting [2]) is reported as “increase intestinal secretion”. For the same compound, the “activity in GC-C receptor activity assay” value at intestinal GC-C receptor is “activity comparable to SEQ ID NO:4”. The “intestinal transit rates versus Tris buffer or equivalent dose of Zelnorm” value with gastrointestinal transit (acute, chemically synthesized peptides, FIG. 4b) is “increase intestinal transit rates more than either Tris buffer alone or an equivalent dose of Zelnorm®”. Also, in the test on gastrointestinal transit (acute), the gastrointestinal transit rate result is “increase gastrointestinal transit rate” and the “intestinal transit rate, dose dependence” value is “increases with an increasing dosage”. For the same compound, the dissociation constant (Kd) in test [1] was approximately 13 nM.

“NSSNYCCEYCCNPACTGCY (cysteine pairing not given here) [SEQ ID NO:5]”: the “intestinal secretion (guts to carcass weight ratio)” value in the test on intestinal secretion (setting [2]) was “increase intestinal secretion”. Also, the “intestinal transit rate, dose dependence” value in the test with gastrointestinal transit (acute) was “increases with an increasing dosage”. The “writhings versus vehicle control” value in the test on PBQ-induced writhing (1 mg/kg dose, oral) was “Significant reductions in writhings”. For the same compound, the “antinociceptive effect compared with indomethacin” value in the test on PBQ-induced writhing (PBQ writhing assay) is “antinociceptive effects in this visceral pain model comparable to the intermediate doses of indomethacin”.
